# Where no end group is shown, it is not given here.
# Tested on: PKA
# Assay: Radioactive PKA kinase reaction with phosphocellulose or streptavidin capture
# Type: biochemical
# Details: substrate peptide
# Method: The peptide substrates were added in 90 μl assay buffer containing 20 mM Tris-HCl pH 7.5, 2.5 mM MgCl2, and 100 μM ATP for non-radioactive detection, or 10 μM cold ATP supplemented with 0.5 μCi/well [γ-^32 P]ATP for radioactive detection, unless indicated otherwise. Freshly reconstituted PKA (1.25 ng/well in 10 μl, unless indicated otherwise) was added last and the samples were incubated for 30 minutes at room temperature. Depending on the detection method the samples were further processed as described below.
# After performing a PKA kinase reaction for 30 minutes, the samples were divided into two. 50 μl were transferred into wells of streptavidin coated microtiter plates, to allow the capture of the biotinylated peptides for additional 50 minutes. The wells were washed five times with water, dried, broken into scintillation vials and counted. The other half of the reaction mixture was further incubated in the original plate for 50 minutes, then TCA was added to the reaction mixture (10% final concentration) and 30 μl was spotted onto P81 paper (1×1 inch squares). After 20 minutes the squares were washed three times with water, dried, placed into scintillation vials and counted. A microtiter plate version of the phosphocellulose capture method was also used with similar results. For src only the phosphocellulose capture method was used.
substance,measurement,value
bio-RRRVTSAARRS (not fully specified (N-terminus); printed as bio-RRRVTSAARRS) [peptide 2],Km,> 20 µM
